From patent publication US12043600B2, “Microbiocidal compounds” (SYNGENTA CROP PROTECTION AG, priority 2018, dated 2024) come the findings set out here.

One may read the inhibition of growth as the relative decrease from the control value, in per cent. Read a low inhibition of growth as a response near the control. The melting point is the temperature of the solid-liquid transition.

Bounds are passed on as bounds.

One data set relates to Alternaria solani. In words: Alternaria solani/Tomato/Leaf Disc (Early Blight). To be noted: foliar, tomato leaf disc, compared to untreated control. In kind it is in vivo. The method, boiled down: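 Tomato cv. Baby leaf disks on agar were sprayed with diluted formulated compound and inoculated with spores 2 days later. Incubation at 23° C./21° C. day/night, 80% rh, 12/12 h light; percent disease control versus untreated scored 5-7 days after application.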

Data set [1] deals with Botryotinia fuckeliana (Botrytis cinerea). The experiment in a line: Botryotinia fuckeliana (Botrytis cinerea)/Liquid Culture (Gray Mould). As to conditions: liquid culture, compared to untreated control. It counts as cell-based. As to the method: Conidia of the fungus from cryogenic storage are directly mixed into nutrient broth (Vogels broth). After placing a (DMSO) solution of test compound into a microtiter plate (96-well format), the nutrient broth containing the fungal spores is added.

Data set [2] has as its system Glomerella lagenarium (Colletotrichum lagenarium). The experiment in a line: Glomerella lagenarium (Colletotrichum lagenarium)/Liquid Culture (Anthracnose). To be noted: Colletotrichum orbiculare, liquid culture, compared to untreated control. It counts as cell-based.
For data set [3], the system named is Phaeosphaeria nodorum (Septoria nodorum). In words: Phaeosphaeria nodorum (Septoria nodorum)/Wheat/Leaf Disc Preventative (Glume Blotch). It counts as in vivo. To be noted: Parastagonospora nodorum, foliar, wheat leaf disc preventative, compared to untreated control. An outline of the steps:
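Wheat cv. Kanzler leaf discs on agar were sprayed with formulated compound diluted in water and inoculated with P. nodorum spores 2 days later. Discs kept at 20 °C, 75% rh, 12 h light/dark; percent disease control versus untreated scored 5–7 days after application.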

For data set [4], the system named is Monographella nivalis (Microdochium nivale). The experiment in a line: Monographella nivalis (Microdochium nivale)/Liquid Culture (Foot Rot Cereals). It counts as cell-based. To be noted: liquid culture, compared to untreated control. The method, boiled down:
(§1)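 Test compound dissolved in DMSO is dispensed first; nutrient broth (potato dextrose) carrying conidia thawed from cryogenic storage follows.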

Data set [5] has as its system Mycosphaerella arachidis (Cercospora arachidicola). The experiment in a line: Mycosphaerella arachidis (Cercospora arachidicola)/Liquid Culture (Early Leaf Spot). In kind it is cell-based. To be noted: liquid culture, compared to untreated control. An outline of the steps:
as §1

For a further data set, the system named is Phakopsora pachyrhizi. The experiment in a line: Phakopsora pachyrhizi/Soybean/Preventative (Soybean Rust). As to conditions: foliar, 288 h, 200 ppm, soybean leaf disc preventative, compared to untreated control, read-out: control of Phakopsora pachyrhizi. In kind it is in vivo.
The next data set concerns Phytophthora infestans. The experiment in a line: whole plant or invertebrate. In kind it is in vivo. As to conditions: in Solanum lycopersicum, foliar, read-out: control of Phytophthora infestans.
In a further data set the test system is Plasmopara viticola. In words: whole plant or invertebrate. It counts as in vivo. To be noted: foliar, read-out: control of Plasmopara viticola.
Data set [6] concerns Puccinia recondita f. sp. tritici. The experiment in a line: Puccinia recondita f. sp. tritici/Wheat/Leaf Disc Curative (Brown Rust). It counts as in vivo. To be noted: foliar, wheat leaf disc curative, compared to untreated control. The method, boiled down:
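Curative leaf-disc test on wheat cv. Kanzler segments on agar, spore-inoculated and kept dark at 19° C, 75% rh; formulated compound in water applied 1 day after inoculation. Incubated at 19° C, 75% rh, 12 h light/12 h dark; percent disease control versus untreated scored 6-8 days after application.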

The test system is the same in data set [7]. The experiment in a line: Puccinia recondita f. sp. tritici/Wheat/Leaf Disc Preventative (Brown Rust). It counts as in vivo. As to conditions: foliar, 200 ppm, wheat leaf disc preventative, compared to untreated control, read-out: control of Puccinia recondita f. sp. tritici.
In data set [8] the test system is Magnaporthe grisea (Pyricularia oryzae). The experiment in a line: whole plant or invertebrate. In kind it is in vivo. As to conditions: foliar, read-out: control of Magnaporthe grisea.
The subject of data set [9] is Thanatephorus cucumeris (Rhizoctonia solani). The experiment in a line: Thanatephorus cucumeris (Rhizoctonia solani)/Liquid Culture (Foot Rot, Damping-Off). In kind it is cell-based. As to conditions: liquid culture, compared to untreated control. As to the method:
Mycelia fragments of a newly grown liquid culture of the fungus are directly mixed into nutrient broth (PDB potato dextrose broth). After placing a (DMSO) solution of the test compounds into a microtiter plate (96-well format), the nutrient broth containing the fungal material is added.

In data set [10] the test system is Mycosphaerella graminicola (Septoria tritici). In words: Mycosphaerella graminicola (Septoria tritici)/Liquid Culture (Septoria Blotch). In kind it is cell-based. To be noted: Zymoseptoria tritici; 20 ppm; liquid culture; compared to untreated control. The method, boiled down:
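Conidia from cryogenic storage mixed into potato dextrose broth and added to microtiter wells already holding DMSO solutions of test compound. Activity expressed as percentage disease control.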

Data set [11] deals with Blumeria graminis f. sp. tritici (Erysiphe graminis f. sp. tritici). In words: Blumeria graminis f. sp. tritici/Wheat/Leaf Disc Preventative (Powdery Mildew on Wheat). In kind it is in vivo. To be noted: foliar, wheat leaf disc preventative, compared to untreated control. An outline of the steps: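 Wheat cv. Kanzler leaf segments on agar sprayed with formulated compound, inoculated with powdery mildew 1 day later and held at 20° C, 60% rh (24 h dark, then 12 h light/12 h dark). Percent disease control versus untreated scored 6-8 days after application.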

Another data set relates to Pyrenophora teres. The experiment in a line: Pyrenophora teres/Barley/Leaf Disc Preventative (Net Blotch). It counts as in vivo. As to conditions: foliar, 200 ppm, barley leaf disc preventative, compared to untreated control, read-out: control of Pyrenophora teres. The method, boiled down: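 Formulated compound, diluted in water, sprayed onto barley cv. Hasso leaf segments on agar; spore suspension inoculation followed 2 days after application. Results expressed as percentage disease control.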

For `CO/C=C(\Oc1cc(-n2ccc(C(C)=NOC)n2)ccc1C)C(=O)OC` [Compound E-30, methyl (Z)-3-methoxy-2-[5-[3-(N-methoxy-C-methyl-carbonimidoyl)pyrazol-1-yl]-2-methyl-phenoxy]prop-2-enoate], the melting point is 130 to 133 °C. Moreover, the pest or weed control at 200 ppm with Alternaria solani was at least 80%. In data set [1], the inhibition of growth at 20 ppm is at least 80%. Besides, the inhibition of growth at 20 ppm in data set [2] is at least 80%. The pest or weed control at 200 ppm in data set [3] is at least 80%. The molecule further returned an inhibition of growth at 20 ppm in data set [4] of at least 80%. The molecule also registered an inhibition of growth at 20 ppm in data set [5] of at least 80%. The pest or weed control at 200 ppm in the data set with Phakopsora pachyrhizi was at least 50%. The pest or weed control at 200 ppm with Phytophthora infestans is at least 80%. In the data set on Plasmopara viticola, the pest or weed control at 200 ppm is at least 80%. In [6], this molecule showed a pest or weed control at 200 ppm of at least 80%. Moreover, the pest or weed control at 200 ppm in data set [7] was at least 80%. Further, in data set [8], the pest or weed control at 200 ppm was at least 80%. Also, the inhibition of growth at 20 ppm in [9] was at least 80%. In data set [10], the inhibition of growth at 20 ppm is at least 80%.
On to `CO/C=C(\Oc1cc(C)cc(-n2ccc(C(F)(F)F)n2)c1)C(=O)OC` [Compound E-34, methyl (Z)-3-methoxy-2-[3-methyl-5-[3-(trifluoromethyl)pyrazol-1-yl]phenoxy]prop-2-enoate], for which the pest or weed control at 200 ppm (in the data set with Alternaria solani; in data set [11]; in the data set on Phytophthora infestans; in the data set on Plasmopara viticola; in data set [7]; in [8]) was at least 80% in each case. In the data set on Pyrenophora teres, the pest or weed control at 200 ppm is at least 80%. Moreover, the inhibition of growth at 20 ppm in data set [1], in data set [2], in data set [4], in data set [5], in data set [9] and in data set [10] was at least 80% each time.
Consider `C/C=C/c1ccn(-c2ccc(C)c(O/C(=C\OC)C(=O)OC)c2)n1` [Compound E-38, methyl (Z)-3-methoxy-2-[2-methyl-5-[3-[(E)-prop-1-enyl]pyrazol-1-yl]phenoxy]prop-2-enoate], for which the melting point was 110 to 112 °C. In addition, the inhibition of growth at 20 ppm in [1] was at least 80%. Besides, the inhibition of growth at 20 ppm in data set [2] is at least 80%. In addition, the pest or weed control at 200 ppm in [11] is at least 80%. Also, the inhibition of growth at 20 ppm in [4] is at least 80%. The molecule also came in with an inhibition of growth at 20 ppm in [5] of at least 80%. Also, the pest or weed control at 200 ppm in the data set with Phytophthora infestans was at least 80%. For the same molecule, the pest or weed control at 200 ppm with Plasmopara viticola is at least 80%. The pest or weed control at 200 ppm in data set [6] was at least 80%. Further, the pest or weed control at 200 ppm in [7] was at least 80%. Also, in data set [8], the pest or weed control at 200 ppm is at least 80%. Also, in the data set with Pyrenophora teres, the pest or weed control at 200 ppm was at least 80%. For the same molecule, the inhibition of growth at 20 ppm in data set [9] is at least 80%. This molecule also showed an inhibition of growth at 20 ppm in data set [10] of at least 80%.
For the molecule `C=Cc1ccn(-c2ccc(C)c(O/C(=C\OC)C(=O)OC)c2)n1` [Compound E-45, methyl (Z)-3-methoxy-2-[2-methyl-5-(3-vinylpyrazol-1-yl)phenoxy]prop-2-enoate], the melting point lay within 114 to 117 °C. In addition, the inhibition of growth at 20 ppm in data set [2] was at least 80%. Further, the pest or weed control at 200 ppm in [11] was at least 80%. For the same molecule, in data set [3], the pest or weed control at 200 ppm is at least 80%. The inhibition of growth at 20 ppm in [4] was at least 80%. This molecule also yielded an inhibition of growth at 20 ppm in data set [5] of at least 80%. In addition, the pest or weed control at 200 ppm in the data set on Phytophthora infestans was at least 80%. In addition, the pest or weed control at 200 ppm in the data set on Plasmopara viticola was at least 80%. The molecule further showed a pest or weed control at 200 ppm in data set [6] of at least 80%. In [7], the pest or weed control at 200 ppm was at least 80%. Further, the pest or weed control at 200 ppm in data set [8] is at least 80%. Moreover, in the data set with Pyrenophora teres, the pest or weed control at 200 ppm is at least 80%. The inhibition of growth at 20 ppm in data set [9] was at least 80%. This molecule also gave an inhibition of growth at 20 ppm in data set [10] of at least 80%.
For the molecule `CO/C=C(\Oc1cc(-n2cc(C(C)C)cn2)ccc1C)C(=O)OC` [Compound E-57, methyl (Z)-2-[5-(4-isopropylpyrazol-1-yl)-2-methyl-phenoxy]-3-methoxy-prop-2-enoate], the pest or weed control at 200 ppm in the data set on Alternaria solani was at least 80%; in data set [11], at least 80%; in data set [3] it was at least 80%; with Phakopsora pachyrhizi it was at least 50%; in the data set on Phytophthora infestans, at least 80%; with Plasmopara viticola, at least 80%. Further, the pest or weed control at 200 ppm in data set [6], in data set [7] and in data set [8] was at least 80% in each case. Besides, the inhibition of growth at 20 ppm in [1], in [2], in data set [4], in [5], in [9] and in data set [10] was at least 80% throughout.
For the molecule `CO/C=C(\Oc1cc(-n2cc(C3CCCC3)cn2)ccc1C)C(=O)OC` [Compound E-58, methyl (Z)-2-[5-(4-cyclopentylpyrazol-1-yl)-2-methyl-phenoxy]-3-methoxy-prop-2-enoate], the pest or weed control at 200 ppm was at least 80% in the data set on Alternaria solani; at least 80% in data set [11]; at least 80% in [3]; at least 50% in the data set on Phakopsora pachyrhizi; at least 80% in the data set on Phytophthora infestans; at least 80% in the data set with Plasmopara viticola. Moreover, the pest or weed control at 200 ppm in data set [6], in data set [7] and in data set [8] was at least 80% each time. In addition, the inhibition of growth at 20 ppm in data set [1], in data set [2], in data set [4], in data set [5], in data set [9] and in data set [10] was at least 80% in each case.
`CO/C=C(\Oc1cc(-n2cc(I)cn2)ccc1C)C(=O)OC` [Compound E-60, methyl (Z)-2-[5-(4-iodopyrazol-1-yl)-2-methyl-phenoxy]-3-methoxy-prop-2-enoate]: the pest or weed control at 200 ppm (in the data set on Alternaria solani; in [11]; in [3]; in the data set on Phytophthora infestans; with Plasmopara viticola; in data set [6]) was at least 80% in each case. Also, the pest or weed control at 200 ppm in data set [7] and in data set [8] was at least 80% each time. Also, the inhibition of growth at 20 ppm in data set [1], in data set [2], in data set [4], in data set [5], in data set [9] and in data set [10] was at least 80% each time.
As for `CO/C=C(\Oc1cc(-n2ccc(C(F)(F)F)n2)ccc1Cl)C(=O)OC` [Compound E-98, methyl (Z)-2-[2-chloro-5-[3-(trifluoromethyl)pyrazol-1-yl]phenoxy]-3-methoxy-prop-2-enoate], the pest or weed control at 200 ppm is at least 80% with Alternaria solani; at least 80% in [11]; at least 50% in the data set with Phakopsora pachyrhizi; at least 80% in the data set on Phytophthora infestans; at least 80% in the data set with Plasmopara viticola; at least 80% in [7]. Also, in data set [8], the pest or weed control at 200 ppm is at least 80%. Besides, the inhibition of growth at 20 ppm in data set [1], in [2], in [4], in data set [5], in [9] and in data set [10] was at least 80% throughout.
